US10550111B2, “Pyrimidine urea compound containing isoxazolines and use thereof” (SHENYANG SINOCHEM AGROCHEMICALS R&D CO., LTD, priority 2014, dated 2020)

Legend:
Assay type in all cases: in vivo
[1] = test system: broad-leaf weeds and grass weeds; assay: General screening of herbicidal activity in greenhouse; settings: 1000 g a.i./hm^2;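 also: 0 means no visible effect and 100 means all weeds dead or not emerged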
Method in brief: (§1)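 Pre- and post-emergence greenhouse test. Track sprayer, 500 L/hm^2, 1.95 kg/cm^2; EC formulation. Post-em at 2–3 leaves (grass), 2–4 leaves (broad-leaf). Readout: visual % inhibition.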

[2] = test system: Echinochloa crus-galli (L.) Beauv.; assay: Bioassay of herbicidal activity in greenhouse (further screening)
Method in brief: as §1

[3] = test system: Setaria glauca (L.) Beauv.; assay: as above
Method in brief: as §1

Zinnia elegans Jacq. = assay: as above
Method in brief: as §1

[4] = test system: Abutilon theophrasti Medic.; assay: as above
Method in brief: as §1

Row | SMILES | pre-emergence and post-emergence herbicidal activity against broad-leaf weeds and grass weeds [1] | Growth inhibition rate, Post-emergence treatment, Echinochloa crus-galli (L.) Beauv. ([2]; dose 37.5 g a.i./hm^2) [%] | Growth inhibition rate, Post-emergence treatment, Echinochloa crus-galli (L.) Beauv. ([2]; dose 150 g a.i./hm^2) [%] | Growth inhibition rate, Post-emergence treatment, Echinochloa crus-galli (L.) Beauv. ([2]; dose 600 g a.i./hm^2) [%] | Growth inhibition rate, Pre-emergence treatment, Echinochloa crus-galli (L.) Beauv. ([2]; dose 37.5 g a.i./hm^2) [%] | Growth inhibition rate, Pre-emergence treatment, Echinochloa crus-galli (L.) Beauv. ([2]; dose 150 g a.i./hm^2) [%] | Growth inhibition rate, Pre-emergence treatment, Echinochloa crus-galli (L.) Beauv. ([2]; dose 600 g a.i./hm^2) [%] | Growth inhibition rate, Post-emergence treatment, Setaria glauca (L.) Beauv. ([3]; dose 37.5 g a.i./hm^2) [%] | Growth inhibition rate, Post-emergence treatment, Setaria glauca (L.) Beauv. ([3]; dose 150 g a.i./hm^2) [%] | Growth inhibition rate, Post-emergence treatment, Setaria glauca (L.) Beauv. ([3]; dose 600 g a.i./hm^2) [%] | Growth inhibition rate, Pre-emergence treatment, Setaria glauca (L.) Beauv. ([3]; dose 37.5 g a.i./hm^2) [%] | Growth inhibition rate, Pre-emergence treatment, Setaria glauca (L.) Beauv. ([3]; dose 150 g a.i./hm^2) [%] | Growth inhibition rate, Pre-emergence treatment, Setaria glauca (L.) Beauv. ([3]; dose 600 g a.i./hm^2) [%] | Growth inhibition rate, Post-emergence treatment, Zinnia elegans Jacq. (Zinnia elegans Jacq.; dose 37.5 g a.i./hm^2) [%] | Growth inhibition rate, Post-emergence treatment, Zinnia elegans Jacq. (Zinnia elegans Jacq.; dose 150 g a.i./hm^2) [%] | Growth inhibition rate, Post-emergence treatment, Zinnia elegans Jacq. (Zinnia elegans Jacq.; dose 600 g a.i./hm^2) [%] | Growth inhibition rate, Pre-emergence treatment, Zinnia elegans Jacq. (Zinnia elegans Jacq.; dose 37.5 g a.i./hm^2) [%] | Growth inhibition rate, Pre-emergence treatment, Zinnia elegans Jacq. (Zinnia elegans Jacq.; dose 150 g a.i./hm^2) [%] | Growth inhibition rate, Pre-emergence treatment, Zinnia elegans Jacq. (Zinnia elegans Jacq.; dose 600 g a.i./hm^2) [%] | Growth inhibition rate, Post-emergence treatment, Abutilon theophrasti Medic. ([4]; dose 37.5 g a.i./hm^2) [%] | also measured
1 | Cn1c(C(F)(F)F)cc(=O)n(-c2cc(C3=NOC(C)(COC(=O)CCl)C3)c(Cl)cc2F)c1=O (centres unmarked) [Compound 50] | good | 10 | 30 | 80 | 0 | 10 | 80 | 15 | 65 | 98 | 0 | 30 | 90 | 98 | 100 | 100 | 0 | 30 | 90 | 100 | Growth inhibition rate, Post-emergence treatment, Abutilon theophrasti Medic. ([4]; dose 150 g a.i./hm^2): 100%; Growth inhibition rate, Post-emergence treatment, Abutilon theophrasti Medic. ([4]; dose 600 g a.i./hm^2): 100%; Growth inhibition rate, Pre-emergence treatment, Abutilon theophrasti Medic. ([4]; dose 37.5 g a.i./hm^2): 0%; Growth inhibition rate, Pre-emergence treatment, Abutilon theophrasti Medic. ([4]; dose 150 g a.i./hm^2): 35%; Growth inhibition rate, Pre-emergence treatment, Abutilon theophrasti Medic. ([4]; dose 600 g a.i./hm^2): 100%
2 | CCCCOC(=O)C1(C)CC(c2cc(-n3c(=O)cc(C(F)(F)F)n(C)c3=O)c(F)cc2Cl)=NO1 (centres unmarked) [Compound 8] | good | – | – | – | – | – | – | – | – | – | – | – | – | – | – | – | – | – | – | – | Growth inhibition rate, Post-emergence treatment, Echinochloa crus-galli (L.) Beauv. ([2]; dose 7.5 g a.i./hm^2): 70%; Growth inhibition rate, Post-emergence treatment, Echinochloa crus-galli (L.) Beauv. ([2]; dose 15 g a.i./hm^2): 95%; Growth inhibition rate, Post-emergence treatment, Echinochloa crus-galli (L.) Beauv. ([2]; dose 30.0 g a.i./hm^2): 100%; Growth inhibition rate, Post-emergence treatment, Echinochloa crus-galli (L.) Beauv. ([2]; dose 60.0 g a.i./hm^2): 100%; Growth inhibition rate, Post-emergence treatment, Echinochloa crus-galli (L.) Beauv. ([2]; dose 120.0 g a.i./hm^2): 100%; Growth inhibition rate, Post-emergence treatment, Setaria glauca (L.) Beauv. ([3]; dose 7.5 g a.i./hm^2): 60%; Growth inhibition rate, Post-emergence treatment, Setaria glauca (L.) Beauv. ([3]; dose 15 g a.i./hm^2): 80%; Growth inhibition rate, Post-emergence treatment, Setaria glauca (L.) Beauv. ([3]; dose 30.0 g a.i./hm^2): 100%; Growth inhibition rate, Post-emergence treatment, Setaria glauca (L.) Beauv. ([3]; dose 60.0 g a.i./hm^2): 100%; Growth inhibition rate, Post-emergence treatment, Setaria glauca (L.) Beauv. ([3]; dose 120.0 g a.i./hm^2): 100%; Growth inhibition rate, Post-emergence treatment, Zinnia elegans Jacq. (Zinnia elegans Jacq.; dose 7.5 g a.i./hm^2): 90%; Growth inhibition rate, Post-emergence treatment, Zinnia elegans Jacq. (Zinnia elegans Jacq.; dose 15 g a.i./hm^2): 95%; Growth inhibition rate, Post-emergence treatment, Zinnia elegans Jacq. (Zinnia elegans Jacq.; dose 30.0 g a.i./hm^2): 95%; Growth inhibition rate, Post-emergence treatment, Zinnia elegans Jacq. (Zinnia elegans Jacq.; dose 60.0 g a.i./hm^2): 100%; Growth inhibition rate, Post-emergence treatment, Zinnia elegans Jacq. (Zinnia elegans Jacq.; dose 120.0 g a.i./hm^2): 100%; Growth inhibition rate, Post-emergence treatment, Abutilon theophrasti Medic. ([4]; dose 7.5 g a.i./hm^2): 100%; Growth inhibition rate, Post-emergence treatment, Abutilon theophrasti Medic. ([4]; dose 15 g a.i./hm^2): 100%; Growth inhibition rate, Post-emergence treatment, Abutilon theophrasti Medic. ([4]; dose 30.0 g a.i./hm^2): 100%; Growth inhibition rate, Post-emergence treatment, Abutilon theophrasti Medic. ([4]; dose 60.0 g a.i./hm^2): 100%; Growth inhibition rate, Post-emergence treatment, Abutilon theophrasti Medic. ([4]; dose 120.0 g a.i./hm^2): 100%
3 | Cn1c(C(F)(F)F)cc(=O)n(-c2cc(C3=NOC(C)(C(N)=O)C3)c(Cl)cc2F)c1=O (centres unmarked) [Compound 22] | good | 0 | 5 | 10 | 0 | 0 | 0 | 10 | 10 | 15 | 0 | 0 | 0 | 55 | 90 | 95 | 0 | 0 | 0 | 30 | Growth inhibition rate, Post-emergence treatment, Abutilon theophrasti Medic. ([4]; dose 150 g a.i./hm^2): 55%; Growth inhibition rate, Post-emergence treatment, Abutilon theophrasti Medic. ([4]; dose 600 g a.i./hm^2): 100%; Growth inhibition rate, Pre-emergence treatment, Abutilon theophrasti Medic. ([4]; dose 37.5 g a.i./hm^2): 0%; Growth inhibition rate, Pre-emergence treatment, Abutilon theophrasti Medic. ([4]; dose 150 g a.i./hm^2): 0%; Growth inhibition rate, Pre-emergence treatment, Abutilon theophrasti Medic. ([4]; dose 600 g a.i./hm^2): 0%
